Test results published in patent US20250197408A1, “CRYSTALLINE FORMS AND SALTS OF A PI3K INHIBITOR AND METHODS OF MAKING AND METHODS OF USE THEREOF” (Totus Medicines Inc., priority 2022, published 2025).
Values after ≈ are worked out from the molar mass of the structure shown.

Key:
[1] = Solubility in 7 aqueous pH buffers and bio-relevant fluids at 37° C. (HPLC of supernatant; residual solids by XRPD); type: physicochemical; conditions: for solubility at 2 h / solubility at 24 h: thermodynamic from solid
Experimental: 20 mg of the free base Form A of Compound I was weighed into a 20 mL glass vial. Amounts of the salts equivalent to 20 mg anhydrous free base were weighed into a glass vial. 10 mL of solubility medium was added. The resulting suspensions/solutions were stirred at 37° C. at 400 rpm and sampled at 2 hours and at 24 hours, respectively. The samples were centrifuged at 37° C. at 14,000 rpm for 5 min. Supernatants were analyzed by HPLC and pH meter for solubility and pH value, respectively. Residual solids (wet cakes) from the 24 hours samples were also characterized by XRPD to determine physical form.
Residual solids after the solubility test were analyzed by XRPD.

[2] = Dynamic vapor sorption (DVS) analysis at 25° C.; type: physicochemical
Experimental: In one embodiment, the crystalline forms are characterized by Dynamic Vapor Sorption (DVS). The DVS profile is typically expressed by a diagram plotting the sample relative humidity (RH) versus the change in mass (%). The DVS profile provides information on hygroscopicity of the crystalline form at different RH conditions.
A DVS (dynamic vapor sorption) analysis at 25° C. was carried out on Form A** of Compound I benzenesulfonate salt as shown in FIG. 3D.

[3] = ES1, pH 1.2 HCl solution (0.1N), 37° C.
[4] = ES2, pH 4.5 acetate buffer (50 mM), 37° C.
[5] = ES3, pH 6.8 phosphate buffer (50 mM), 37° C.
[6] = ES4, pH 7.4 phosphate buffer (50 mM), 37° C.
[7] = aqueous buffer, ES2, pH 4.5 acetate buffer (50 mM), 37° C.
[8] = aqueous buffer, ES3, pH 6.8 phosphate buffer (50 mM), 37° C.
[9] = aqueous buffer, ES4, pH 7.4 phosphate buffer (50 mM), 37° C.
[10] = simulated gastric fluid, ES1, pH 1.2 HCl solution (0.1N), 37° C.
[11] = simulated gastric fluid, ES5, SGF, pH 2.0, 37° C.

Structure (SMILES)	pH of supernatant, solubility for 2 h (pH) [1, 3]	pH of supernatant, solubility for 24 h (pH) [1, 3]	pH of supernatant, solubility for 2 h (pH) [1, 4]	pH of supernatant, solubility for 24 h (pH) [1, 4]	pH of supernatant, solubility for 2 h (pH) [1, 5]	pH of supernatant, solubility for 24 h (pH) [1, 5]	pH of supernatant, solubility for 2 h (pH) [1, 6]	pH of supernatant, solubility for 24 h (pH) [1, 6]	pH of supernatant, solubility for 2 h (pH) ([1]; ES5, SGF, pH 2.0, 37° C.)	pH of supernatant, solubility for 24 h (pH) ([1]; ES5, SGF, pH 2.0, 37° C.)	pH of supernatant, solubility for 2 h (pH) ([1]; ES6, FaSSIF-v1, pH 6.5, 37° C.)	pH of supernatant, solubility for 24 h (pH) ([1]; ES6, FaSSIF-v1, pH 6.5, 37° C.)	pH of supernatant, solubility for 2 h (pH) ([1]; ES7, FeSSIF-v1, pH 5.0, 37° C.)	pH of supernatant, solubility for 24 h (pH) ([1]; ES7, FeSSIF-v1, pH 5.0, 37° C.)	hygroscopicity / water sorption behavior (DVS) [2]	solid form of the sample after the DVS test [2]	water uptake (DVS) ([2]; from 40% to 95% RH)	Solubility for 2 h [1, 3] [µg/mL]	Solubility for 24 h [1, 3] [µg/mL]	Solubility for 2 h [1, 4] [µg/mL]	further results
C=CC(=O)NCC(=O)N1CCN(Cc2cc3c(N4CCOCC4)nc(-c4cnc(NC(=O)OC)cc4C(F)(F)F)nn3c2)CC1 [Form A of Compound I, methyl (5-(6-((4-(acryloylglycyl)piperazin-1-yl)methyl)-4-morpholinopyrrolo[2,1-f][1,2,4]triazin-2-yl)-4-(trifluoromethyl)pyridin-2-yl) carbamate]	(1.2)	(1.0)	(4.5)	(4.4)	(6.8)	(6.7)	(7.5)	(7.4)	(2.0)	(1.9)	(6.5)	(6.5)	(5.0)	(5.0)	slightly hygroscopic	still the free base Pattern A	about 1.4%				solubility at 2 h [1, 7]: 200 µg/mL (≈ 317 µM); solubility at 24 h [1, 7]: 300 µg/mL (≈ 475 µM); solubility at 2 h [1, 8]: 2.9 µg/mL (≈ 4.59 µM); solubility at 24 h [1, 8]: 5.1 µg/mL (≈ 8.07 µM); solubility at 2 h [1, 9]: 2.2 µg/mL (≈ 3.48 µM); solubility at 24 h [1, 9]: 3.8 µg/mL (≈ 6.02 µM); solubility at 2 h [1, 10]: 1200 µg/mL (≈ 1900 µM); solubility at 24 h [1, 10]: 1000 µg/mL (≈ 1580 µM); solubility at 2 h [1, 11]: > 2000 µg/mL; solubility at 24 h [1, 11]: > 2000 µg/mL; solubility at 2 h ([1]; ES6, FaSSIF-v1, pH 6.5, 37° C.): 9.4 µg/mL (≈ 14.9 µM); solubility at 24 h ([1]; ES6, FaSSIF-v1, pH 6.5, 37° C.): 11.5 µg/mL (≈ 18.2 µM); solubility at 2 h ([1]; ES7, FeSSIF-v1, pH 5.0, 37° C.): 600 µg/mL (≈ 950 µM); solubility at 24 h ([1]; ES7, FeSSIF-v1, pH 5.0, 37° C.): 600 µg/mL (≈ 950 µM)
C=CC(=O)NCC(=O)N1CCN(Cc2cc3c(N4CCOCC4)nc(-c4cnc(NC(=O)OC)cc4C(F)(F)F)nn3c2)CC1.O=C(O)/C=C\C(=O)O [Form B* of Compound I maleate salt, Methyl (5-(6-((4-(acryloylglycyl)piperazin-1-yl)methyl)-4-morpholinopyrrolo[2,1-f][1,2,4]triazin-2-yl)-4-(trifluoromethyl)pyridin-2-yl) carbamate maleate salt]	(1.3)	(1.3)	(4.5)	(4.5)	(6.6)	(6.6)	(7.3)	(7.3)	(2.0)	(2.0)	(6.1)	(6.1)	(5.0)	(5.0)	nearly monotonic water sorption-desorption behavior depending on RH	still Form B* of Compound I maleate salt		1400	1500	>2000	Solubility for 24 h [1, 4]: 300 µg/mL; Solubility for 2 h [1, 5]: 6.6 µg/mL; Solubility for 24 h [1, 5]: 4.7 µg/mL; Solubility for 2 h [1, 6]: 1.5 µg/mL; Solubility for 24 h [1, 6]: 1.4 µg/mL; Solubility for 2 h ([1]; ES5, SGF, pH 2.0, 37° C.): >2000 µg/mL; Solubility for 24 h ([1]; ES5, SGF, pH 2.0, 37° C.): >2000 µg/mL; Solubility for 2 h ([1]; ES6, FaSSIF-v1, pH 6.5, 37° C.): 22.9 µg/mL; Solubility for 24 h ([1]; ES6, FaSSIF-v1, pH 6.5, 37° C.): 16.2 µg/mL; Solubility for 2 h ([1]; ES7, FeSSIF-v1, pH 5.0, 37° C.): 1100 µg/mL; Solubility for 24 h ([1]; ES7, FeSSIF-v1, pH 5.0, 37° C.): 1000 µg/mL; water uptake (DVS) ([2]; from 40% to 90% RH): 2.7%
C=CC(=O)NCC(=O)N1CCN(Cc2cc3c(N4CCOCC4)nc(-c4cnc(NC(=O)OC)cc4C(F)(F)F)nn3c2)CC1.O=S(=O)(O)c1ccccc1 [Methyl (5-(6-((4-(acryloylglycyl)piperazin-1-yl)methyl)-4-morpholinopyrrolo[2,1-f][1,2,4]triazin-2-yl)-4-(trifluoromethyl)pyridin-2-yl) carbamate benzenesulfonate salt]	(1.2)	(1.0)	(4.5)	(4.4)	(6.7)	(6.6)	(7.3)	(7.3)	(2.0)	(1.8)	(6.3)	(6.2)	(5.0)	(4.9)	slightly hygroscopic	still the Form A** of Compound I benzenesulfonate salt	about 1.4%	300	400	200	solubility compared among forms ([1]; 37° C., 2 h and 24 h, 7 aqueous pH buffers and bio-relevant fluids): overall lower solubility than that of Form A of Compound I; Solubility for 24 h [1, 4]: 300 µg/mL; Solubility for 2 h [1, 5]: 8.5 µg/mL; Solubility for 24 h [1, 5]: 6.9 µg/mL; Solubility for 2 h [1, 6]: 5.7 µg/mL; Solubility for 24 h [1, 6]: 4.1 µg/mL; Solubility for 2 h ([1]; ES5, SGF, pH 2.0, 37° C.): 200 µg/mL; Solubility for 24 h ([1]; ES5, SGF, pH 2.0, 37° C.): 300 µg/mL; Solubility for 2 h ([1]; ES6, FaSSIF-v1, pH 6.5, 37° C.): 19.6 µg/mL; Solubility for 24 h ([1]; ES6, FaSSIF-v1, pH 6.5, 37° C.): 18.6 µg/mL; Solubility for 2 h ([1]; ES7, FeSSIF-v1, pH 5.0, 37° C.): 700 µg/mL; Solubility for 24 h ([1]; ES7, FeSSIF-v1, pH 5.0, 37° C.): 800 µg/mL
